Experimental findings from patent US10927125B2, “Substituted cinnolines as inhibitors of KRAS G12C” (Araxes Pharma LLC, priority 2013, dated 2021) are described below.

For the assay, the target named is T1, KRAS G12C 1-169, his-tagged protein, GDP-loaded (Homo sapiens, UniProt P01116, G12C).
T1 construct: KRAS G12C 1-169, his-tagged protein, GDP-loaded
Put plainly: Biochemical assay: covalent binding of compounds to KRAS G12C, analysed by mass spectrometry. The method, then: Compounds were tested for activity as follows:
Compounds were diluted to 50× final test concentration in DMSO in 96-well storage plates. […] Reactions were mixed carefully and thoroughly by pipetting up/down with a 200 μl multi-channel pipettor. The plate was sealed well with aluminum plate seal, and stored in drawer at room temperature for 30 min, 2 hour or 24 hrs. 51 μl of 2% formic acid (Fisher cat # A117) in DI H2O was then added to each well followed by mixing with a pipette. The plate was then resealed with aluminum seal and stored on dry ice until analyzed as described below.
The above described assays were analyzed by mass spectrometry according to the following procedure:
The MS instrument is set to positive polarity, 2 GHz resolution, and low mass (1700) mode and allowed to equilibrate for 30 minutes. The instrument is then calibrated, switched to acquisition mode and the appropriate method loaded.
After another 30 minute equilibration time, a blank batch (i.e., buffer) is run to ensure equipment is operating properly. The samples are thawed at 37° C. for 10 minutes, briefly centrifuged, and transfer to the bench top. Wells A1 and H12 are spiked with 1 uL 500 uM internal standard peptide, and the plates centrifuged at 2000×g for 5 minutes. The method is then run and masses of each individual well recorded.
The masses (for which integration data is desired) for each well are pasted into the platemap and exported from the analysis. Masses for the internal standards are exported as well. The data at 50 ppm is extracted for the +19 charge state, and identity of well A1 is assigned using the internal standard spike and integrated. Peak data is exported as a TOF list and the above steps are repeated individually, for the +20, 21, 22, 23, 24, and 25 charge states.

Where [1] appears, read: binding measured at 30 min (compounds 247-375).

T1 sequence (P01116 1-169 isoform P01116-2 G12C): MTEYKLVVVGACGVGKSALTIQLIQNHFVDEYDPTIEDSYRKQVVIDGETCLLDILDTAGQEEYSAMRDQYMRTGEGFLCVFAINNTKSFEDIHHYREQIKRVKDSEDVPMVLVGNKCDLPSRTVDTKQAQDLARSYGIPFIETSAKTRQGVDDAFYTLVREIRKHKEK

In the case of `C=CC(=O)N1CCN(c2ncnc3c(F)c(-c4cc(O)cc5ccccc45)c(Cl)cc23)CC1CO` (stereo not drawn) [Compound 256, 1-(4-(6-chloro-8-fluoro-7-(3-hydroxynaphthalen-1-yl)quinazolin-4-yl)-2-(hydroxymethyl)piperazin-1-yl)prop-2-en-1-one], the Binding % entry under setting [1] is “+++ (+++ indicates binding activity greater than 50% and up to 75%)”.
Same read-out and setting: as for `C=CC(=O)N1CCN(c2nc(OCCN3CCCC3)nc3c(F)c(-c4c(C)ccc5[nH]ncc45)c(Cl)cc23)CC1` [Compound 358, 1-(4-(6-chloro-8-fluoro-7-(5-methyl-1H-indazol-4-yl)-2-(2-(pyrrolidin-1-yl)ethoxy)quinazolin-4-yl)piperazin-1-yl)prop-2-en-1-one], the entry is “++++ (++++ indicates binding activity greater than 75%)”.
In the case of `C=CC(=O)N1CCN(c2c(C(N)=O)cnc3cc(-c4ccccc4F)c(Cl)cc23)CC1` [Compound 189, 4-(4-acryloylpiperazin-1-yl)-6-chloro-7-(2-fluorophenyl)quinoline-3-carboxamide], under “binding measured at 2 h (compounds 48-246)”, the Binding % entry is “++ (++ indicates binding activity greater than 25% and up to 50%)”.
